Results reported in patent publication US9441238B2, “Compositions and methods for modulating the sensitivity of cells to AHAS inhibitors” (SYNTHETIC GENOMICS, INC., priority 2012, dated 2016).

What was measured:
[1] = system: Nannochloropsis sp.; test: Growth inhibition of Nannochloropsis by herbicide in growth media; type: cell-based
[2] = system: AHAS; conditions: previously reported, several organisms; cited from earlier work

What does the source list for COC(=O)c1ccccc1S(=O)(=O)NC(=O)Nc1nc(C)nc(OC)n1 [metsulfuron methyl]?
growth of Nannochloropsis sp. [1]: strongly inhibited; concentration that could be used to effectively suppress wild-type growth ([1]; wild-type): 30 µM; inhibitor of AHAS activity [2]: potent inhibitor
